The values below come from US20080261999A1, “Azabicycloalkane Derivatives Useful as Nicotinic Acetylcholine Receptor Agonists” (priority 2005, published 2008).

The target of test [1] is T1, human α4β2 nAChRs (Homo sapiens, UniProt P17787+P43681).
T1 construct: expressed in transfected cells; host or cells: HEK-293
Briefly: Nicotinic receptor radioligand binding SPA, [3H]-epibatidine, α4β2. As to the method: (§1) Cell pastes from large-scale production of HEK-293 cells expressing human α4β2, or α3β4 nAChRs are homogenised in 4 volumes of the appropriate buffer (50 mM Tris.HCl containing 150 mM NaCl and 5 mM KCl, pH 7.4). The homogenate is centrifuged twice (40,000 g, 10 minutes, 4° C.) and the pellets re-suspended in 4 volumes of Tris.HCl buffer after the first spin and 8 volumes after the second spin. The re-suspended homogenate is centrifuged (100 g, 10 minutes, 4° C.) and the supernatant kept and re-centrifuged (40,000 g, 20 minutes, 4° C.). The pellet is re-suspended in Tris.HCl buffer supplemented with 10% w/v sucrose. The membrane preparation is stored in 1 ml aliquots at −80° C. until required. The protein concentration of the membrane preparation is determined using a BCA protein assay reagent kit.
(§2) 96-well SPA radioligand binding assays are performed in a final volume of 250 μl Tris-HCl buffer (50 mM Tris-HCl, 150 mM NaCl, 5 mM KCl, pH 7.4) with 1 nM ((α4β2) or 2 nM (α3β4) [^3H]-epibatidine (53 Ci/mmol; Amersham); 1 mg/well ((α4β2) or 1.5 mg/well (α3β4) WGA-coated PVT SPA beads (Amersham) and 30 μg/well membrane protein for all 3 assay types. Non-specific binding (<10% for all 3 assay types) is determined using 10 μM epibatidine.
(§3) Reactions are allowed to equilibrate for 2-4 hours at room temperature prior to reading on a Trilux Scintillation counter (Perkin Elmer). […]

The subject of test [2] is rat striatal slices. The experiment in a line: [3H] Dopamine release assay from rat striatal slices. The test is classed as cell-based. How it is done:
[^3H] Dopamine Release Assay from Rat Striatal Slices
Release of [^3H]dopamine from rat striatal slices is performed as follows. Male Lister-Hooded rats (250-350 g) are sacrificed by exposure to CO2 followed by cervical dislocation. Striata from 2 rats is dissected and chopped 3 times at 150 μm using a Mcllwain tissue chopper, each time rotating the tissue through 60°. Slices are dispersed in Krebs bicarbonate buffer (118 mM NaCl, 2.4 mM KCl, 2.4 mM CaCl2.2H2O, 1.2 mM KH2PO4, 1.2 mM MgSO4.7H2O, 25 mM NaHCO3, 10 mM glucose, 1 mM ascorbic acid, gassed with 5% CO2/95% O2 for 1 h, pH 7.4) including […] pargyline, and incubated with [^3H]dopamine (50 nM) for 30 minutes at 37° C. […]
Optiphase Supermix (Wallac) scintillation fluid (170 μl) is added to each well of the collection plates prior to plates being heat sealed and radioactivity quantified using a Wallac 1450 Microbeta 96-well plate counter (Wallac Oy, Turku, Finland, counting efficiency 25%). Radioactivity remaining in the slices is measured by digestion of the tissue in 0.2 ml Solvable (Packard Biosciences) for 1 h followed by addition of 0.5 ml isopropyl alcohol and 4.5 ml Hlionic Fluor scintillation fluid (Packard Biosciences). Radioactivity was then quantified using a Wallac 1410 scintillation counter (Wallac Oy, Turku, Finland, counting efficiency 35%). […]

For test [3], the target named is T2, human α3β4 nAChRs (Homo sapiens, UniProt P30926+P32297).
T2 construct: expressed in transfected cells; host or cells: HEK-293
T2 sequence (P32297 32-505): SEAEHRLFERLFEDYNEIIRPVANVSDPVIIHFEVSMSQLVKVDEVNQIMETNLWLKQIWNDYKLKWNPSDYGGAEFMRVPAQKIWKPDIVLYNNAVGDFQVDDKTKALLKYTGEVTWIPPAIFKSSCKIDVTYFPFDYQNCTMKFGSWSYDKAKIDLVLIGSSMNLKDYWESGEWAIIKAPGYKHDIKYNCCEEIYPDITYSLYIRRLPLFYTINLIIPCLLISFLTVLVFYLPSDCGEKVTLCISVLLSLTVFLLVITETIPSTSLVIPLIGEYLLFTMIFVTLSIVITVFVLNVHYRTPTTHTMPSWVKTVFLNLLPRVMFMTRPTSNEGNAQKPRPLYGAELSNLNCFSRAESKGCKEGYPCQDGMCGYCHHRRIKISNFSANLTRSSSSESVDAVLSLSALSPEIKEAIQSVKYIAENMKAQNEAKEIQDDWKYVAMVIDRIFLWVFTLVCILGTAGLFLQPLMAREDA
T2 sequence (P30926 22-498): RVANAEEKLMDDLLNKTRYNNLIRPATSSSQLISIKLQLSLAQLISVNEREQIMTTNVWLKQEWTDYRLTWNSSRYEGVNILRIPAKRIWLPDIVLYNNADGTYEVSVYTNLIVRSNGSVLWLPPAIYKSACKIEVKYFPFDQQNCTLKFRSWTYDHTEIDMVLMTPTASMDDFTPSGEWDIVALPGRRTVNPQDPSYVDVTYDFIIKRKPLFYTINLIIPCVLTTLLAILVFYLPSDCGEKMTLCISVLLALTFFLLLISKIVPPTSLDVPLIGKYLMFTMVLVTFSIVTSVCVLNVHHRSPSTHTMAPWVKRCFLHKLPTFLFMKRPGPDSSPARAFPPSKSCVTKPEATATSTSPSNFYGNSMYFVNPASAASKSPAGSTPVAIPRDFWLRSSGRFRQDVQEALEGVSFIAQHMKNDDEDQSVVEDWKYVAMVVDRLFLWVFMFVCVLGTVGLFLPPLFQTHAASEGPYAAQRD
Briefly: Nicotinic receptor radioligand binding SPA, [3H]-epibatidine, α3β4. The settings on record: HEK-293 membranes, 2 nM [3H]-epibatidine. How it is done: as §1, §2, §3

T1 sequence (P43681 29-627): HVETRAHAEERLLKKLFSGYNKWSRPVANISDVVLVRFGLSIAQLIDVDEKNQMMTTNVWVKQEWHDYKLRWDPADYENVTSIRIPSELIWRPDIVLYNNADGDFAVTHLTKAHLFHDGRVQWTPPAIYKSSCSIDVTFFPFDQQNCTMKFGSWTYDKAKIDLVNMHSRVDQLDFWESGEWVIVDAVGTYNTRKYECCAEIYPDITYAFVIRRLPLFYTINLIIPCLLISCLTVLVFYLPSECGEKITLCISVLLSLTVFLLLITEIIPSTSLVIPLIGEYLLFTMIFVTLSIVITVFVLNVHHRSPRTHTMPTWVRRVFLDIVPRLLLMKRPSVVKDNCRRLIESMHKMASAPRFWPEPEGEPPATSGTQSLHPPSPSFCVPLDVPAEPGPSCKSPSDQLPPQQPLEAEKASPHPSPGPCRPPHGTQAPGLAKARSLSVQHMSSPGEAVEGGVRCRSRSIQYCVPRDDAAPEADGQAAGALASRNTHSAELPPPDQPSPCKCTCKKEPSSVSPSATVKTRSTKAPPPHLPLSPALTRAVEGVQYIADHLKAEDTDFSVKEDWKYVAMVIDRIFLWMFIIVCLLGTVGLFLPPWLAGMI
T1 sequence (P17787 26-502): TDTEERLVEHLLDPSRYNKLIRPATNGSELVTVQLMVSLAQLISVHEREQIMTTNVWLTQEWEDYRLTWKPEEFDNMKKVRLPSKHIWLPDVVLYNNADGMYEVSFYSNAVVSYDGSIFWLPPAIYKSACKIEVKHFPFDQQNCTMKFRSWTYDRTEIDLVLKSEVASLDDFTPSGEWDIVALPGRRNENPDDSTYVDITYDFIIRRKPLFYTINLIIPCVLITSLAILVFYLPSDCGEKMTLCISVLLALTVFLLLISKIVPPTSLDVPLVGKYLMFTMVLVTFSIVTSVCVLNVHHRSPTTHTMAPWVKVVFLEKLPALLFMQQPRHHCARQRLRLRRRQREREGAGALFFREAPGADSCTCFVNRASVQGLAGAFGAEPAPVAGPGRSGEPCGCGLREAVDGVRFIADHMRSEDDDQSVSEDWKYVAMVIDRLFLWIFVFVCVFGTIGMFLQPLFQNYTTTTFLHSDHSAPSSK

`Fc1cc(C2=CC3CNCC(C2)C3)cc(-c2ccoc2)c1` (centres unmarked) [Example 20] had a Ki in test [1] (HEK-293 membranes, 1 nM [3H]-epibatidine) of 5.37 nM. Moreover, the “Ki α3β4/Ki α4β2” value in test [1] (selectivity for α4β2 over α3β4) is 89.2. Moreover, in test [2], a half-maximal effect (EC50) was put at 135 nM and the “Efficacy Dopamine release %” value is 41.7%. The same molecule yielded a Ki in test [3] of 479 nM.
